Results published in ChEMBL document CHEMBL2424568, “Phenylpyrazolo[1,5-a]quinazolin-5(4H)-one: a suitable scaffold for the development of noncamptothecin topoisomerase I (Top1) inhibitors” (J Med Chem, 2013).
Activity calls are given as the source filed them. No cut-off for these calls is given here.

What was measured:
[1] = target: T1, DNA topoisomerase 1 (Homo sapiens) (UniProt P11387); experiment: Inhibition of recombinant DNA topoisomerase 1 (unknown origin) assessed as inhibition of topoisomerase 1-mediated DNA cleavage at 1 to 100 uM after 20 mins by SDS-PAGE analysis relative to control
T1 sequence (whole entry): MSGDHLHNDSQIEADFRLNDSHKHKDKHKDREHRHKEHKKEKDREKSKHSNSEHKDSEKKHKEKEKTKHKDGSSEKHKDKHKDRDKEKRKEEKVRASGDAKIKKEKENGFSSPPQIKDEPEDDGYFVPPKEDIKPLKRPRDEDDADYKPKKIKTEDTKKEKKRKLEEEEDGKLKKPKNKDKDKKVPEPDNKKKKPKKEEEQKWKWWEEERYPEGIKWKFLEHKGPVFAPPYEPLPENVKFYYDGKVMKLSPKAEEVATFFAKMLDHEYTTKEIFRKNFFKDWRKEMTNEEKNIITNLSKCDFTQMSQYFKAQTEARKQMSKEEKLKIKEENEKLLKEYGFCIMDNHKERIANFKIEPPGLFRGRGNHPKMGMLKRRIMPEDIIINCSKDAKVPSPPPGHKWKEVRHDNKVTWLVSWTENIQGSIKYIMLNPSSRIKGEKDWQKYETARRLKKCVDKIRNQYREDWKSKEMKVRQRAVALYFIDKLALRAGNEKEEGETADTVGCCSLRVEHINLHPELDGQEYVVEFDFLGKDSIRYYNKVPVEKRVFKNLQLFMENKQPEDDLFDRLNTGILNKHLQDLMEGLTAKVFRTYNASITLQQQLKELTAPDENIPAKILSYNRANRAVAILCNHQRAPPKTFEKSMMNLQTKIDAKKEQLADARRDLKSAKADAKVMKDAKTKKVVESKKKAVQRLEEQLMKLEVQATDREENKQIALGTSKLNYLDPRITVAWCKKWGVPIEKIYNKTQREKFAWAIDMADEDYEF

[2] = target: T1, DNA topoisomerase 1 (Homo sapiens); experiment: Inhibition of recombinant DNA topoisomerase 1 (unknown origin) assessed as inhibition of topoisomerase 1-mediated DNA cleavage at 1 uM after 20 mins by SDS-PAGE analysis

SMILES	Top1 cleavage inhibition (active/inactive) [1]	Top1 DNA cleavage inhibition (active/not active) [2]
CN(C)CCCOc1nc2c(-c3ccc(Cl)cc3)cnn2c2ccccc12	Active	
CCN(CC)CCOc1nc2c(-c3ccccc3)cnn2c2ccccc12	Active	
CN(C)CCOc1nc2c(-c3ccccc3)cnn2c2ccccc12	Active	
CCN(CC)CCNc1nc2cc(-c3ccccc3)nn2c2ccccc12	inactive	
COc1ccc(-c2cnn3c2nc(NCCN(C)C)c2ccccc23)cc1	Active	
CN(C)CCOc1nc2c(-c3ccc(C(F)(F)F)cc3)cnn2c2ccccc12	Active	
CCN(CC)CCOc1nc2cc(-c3ccccc3)nn2c2ccccc12	Active	
COc1ccc(-c2cnn3c2nc(NCCCc2ncc[nH]2)c2ccccc23)cc1	inactive	
c1ccc(-c2cnn3c2nc(NCCCc2ncc[nH]2)c2ccccc23)cc1	Active	
COc1ccc(-c2cnn3c2nc(NCCCN(C)C)c2ccccc23)cc1	Active	
CN(C)CCCNc1nc2c(-c3ccc(C(F)(F)F)cc3)cnn2c2ccccc12	Active	
CCN(CC)CCNc1nc2c(-c3ccc(Cl)cc3)cnn2c2ccccc12	Active	
CN(C)CCCOc1nc2cc(-c3ccccc3)nn2c2ccccc12	inactive	
CCN(CC)CCOc1nc2c(-c3ccc(OC)cc3)cnn2c2ccccc12	Active	
CN(C)CCCNc1nc2c(-c3ccc(Cl)cc3)cnn2c2ccccc12	Active	
FC(F)(F)c1ccc(-c2cnn3c2nc(NCCCc2ncc[nH]2)c2ccccc23)cc1	inactive	
CN(C)CCCOc1nc2c(-c3ccccc3)cnn2c2ccccc12	Active	
Clc1ccc(-c2cnn3c2nc(NCCCc2ncc[nH]2)c2ccccc23)cc1	inactive	inactive

SMILES	Top1 cleavage inhibition (active/inactive) [1]	Top1 DNA cleavage inhibition (active/not active) [2]
COc1cc2c3c(n(CCCNCCO)c(=O)c2cc1OC)-c1cc2c(cc1C3=O)OCO2		Active
CCN(CC)CCOc1nc2c(-c3ccc(C(F)(F)F)cc3)cnn2c2ccccc12	inactive	
CCN(CC)CCNc1nc2c(-c3ccc(OC)cc3)cnn2c2ccccc12	Active	
CCN(CC)CCNc1nc2c(-c3ccccc3)cnn2c2ccccc12	Active	
COc1ccc(-c2cnn3c2nc(OCCCN(C)C)c2ccccc23)cc1	Active	
CN(C)CCCOc1nc2c(-c3ccc(C(F)(F)F)cc3)cnn2c2ccccc12	inactive	inactive
O=c1c2ccccc2n2nc(-c3ccccc3)cc2n1CCCc1ncc[nH]1	inactive	
CN(C)CCOc1nc2c(-c3ccc(Cl)cc3)cnn2c2ccccc12	Active	
CN(C)CCOc1nc2cc(-c3ccccc3)nn2c2ccccc12	Active	
COc1ccc(-c2cnn3c2nc(OCCN(C)C)c2ccccc23)cc1	Active	
CCN(CC)CCNc1nc2c(-c3ccc(C(F)(F)F)cc3)cnn2c2ccccc12	Active	
CN(C)CCNc1nc2c(-c3ccc(Cl)cc3)cnn2c2ccccc12	Active	
CN(C)CCNc1nc2c(-c3ccc(C(F)(F)F)cc3)cnn2c2ccccc12	Active	
c1ccc(-c2cc3nc(NCCCc4ncc[nH]4)c4ccccc4n3n2)cc1	inactive	
CN(C)CCCn1c(=O)c2ccccc2n2nc(-c3ccccc3)cc12	inactive	inactive
CN(C)CCn1c(=O)c2ccccc2n2nc(-c3ccccc3)cc12	Active	
CCN(CC)CCOc1nc2c(-c3ccc(Cl)cc3)cnn2c2ccccc12	Active	inactive
